Experimental data: article PMC7724564 (Science Bulletin, 2020)
pKd: −log10 of the molar value.

Target: human angiotensin-converting enzyme 2 (ACE2) (Homo sapiens, UniProt Q9BYF1)
Experiment: biolayer interferometry
Format: binding

human angiotensin-converting enzyme 2 (ACE2), sequence (Q9BYF1 18-740): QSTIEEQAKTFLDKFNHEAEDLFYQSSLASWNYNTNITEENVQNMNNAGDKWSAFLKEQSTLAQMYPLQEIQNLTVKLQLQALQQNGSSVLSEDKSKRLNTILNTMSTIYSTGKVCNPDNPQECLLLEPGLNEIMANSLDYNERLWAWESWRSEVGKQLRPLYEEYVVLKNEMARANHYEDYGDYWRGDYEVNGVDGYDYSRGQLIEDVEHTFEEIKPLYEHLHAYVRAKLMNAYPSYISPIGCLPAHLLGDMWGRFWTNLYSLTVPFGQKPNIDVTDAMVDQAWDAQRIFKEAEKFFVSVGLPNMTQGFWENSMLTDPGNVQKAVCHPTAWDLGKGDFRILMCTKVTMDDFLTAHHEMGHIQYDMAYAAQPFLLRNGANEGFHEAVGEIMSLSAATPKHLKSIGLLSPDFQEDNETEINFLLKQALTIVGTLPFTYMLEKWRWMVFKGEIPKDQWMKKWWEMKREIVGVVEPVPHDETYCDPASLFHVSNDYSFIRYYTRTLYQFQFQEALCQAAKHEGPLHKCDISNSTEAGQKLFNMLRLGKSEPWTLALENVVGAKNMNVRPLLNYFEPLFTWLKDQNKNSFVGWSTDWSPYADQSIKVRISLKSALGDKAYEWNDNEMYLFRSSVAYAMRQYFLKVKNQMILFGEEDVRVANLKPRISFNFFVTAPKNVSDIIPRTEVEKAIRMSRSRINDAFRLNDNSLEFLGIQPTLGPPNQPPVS

## C=CC1=C(C)c2cc3[nH]c(cc4nc(cc5[nH]c(cc1n2)c(C)c5CCC(=O)O)C(CCC(=O)O)=C4C)c(C)c3C=C [protoporphyrin IX]
  pKd: 4.41
